Experimental data taken from patent US20180214428A1, “3-(1H-INDOL-2-YL)-1H-PYRAZOLO[3,4-B]PYRIDINES AND THERAPEUTIC USES THEREOF” (Samumed, LLC, priority 2015, published 2018).
pEC50: −log10 of the molar value.

Tests used:
SW480 colon cancer cells = test: Cell viability assay (CellTiter-Blue) in SW480 colon cancer cells; type: cell-based, human; conditions: Homo sapiens; for pEC50: 96 h, four days, CellTiter-Blue; for inhibition at 10 µM: given for EC50 of >10 μM, read-out: percent inhibition at 10 μM
Method: Representative compounds were screened using the following assay procedure to assess the effect on cell viability as described below.
Each compound was dissolved in DMSO as a 10 mM stock and used to prepare compound source plates. Serial dilution (1:3, 8-point dose-response curves from 10 μM to 0.0045 μM) and compound transfer was performed using the ECHO 550 (Labcyte, Sunnyvale, Calif.) into 96-well clear bottom, black-walled plates (Corning-Costar).
Approximately 2×10^3 SW480 colon cancer cells were seeded into each well and allowed to incubate in the presence or absence of compound for four days at 37° C./5% CO2. Eight replicates of DMSO-treated cells served as controls and cells treated with compound were performed in duplicate.
After incubation, 20 μL of CellTiter-Blue (Promega) was added to each well allowed to incubate for approximately 3 hours. This reagent was a buffered solution which contains resazurin, metabolically active cells were able to reduce rezarurin (blue) into resorufin (pink) which was highly fluorescent. This measured fluorescence was used as a readout for cell viability.
After incubation, the plates were read at Ex 560 nm Em 590 nm (Cytation 3, BioTek). Dose-response curves were generated and EC50 concentration values were calculated using non-linear regression curve fit in the GraphPad Prism (San Diego, Calif.) or Dotmatics' Studies Software (Bishops Stortford, UK). For EC50 of >10 μM, the percent inhibition at 10 μM is provided.

[1] = tested on: primary human fibroblasts derived from IPF patients (LL29 cells); test: Inhibition of the fibrotic process: αSMA staining in TGF-β1 treated LL29 fibroblasts; type: cell-based; conditions: Homo sapiens, Fibroblast; for pEC50: 96 h, TGF-β1 20 ng/mL, 4 days, % αSMA positive cells; for inhibition at 10 µM: given for EC50 of >10 μM, TGF-β1, αSMA, read-out: percent inhibition at 10 μM
Description: Representative compounds were screened using primary human fibroblasts (derived from IPF patients) treated with TGF-β1 to determine their ability to inhibit the fibrotic process.
Primary human fibroblasts derived from IPF patients (LL29 cells) [^1Xiaoqiu Liu, et. al., “Fibrotic Lung Fibroblasts Show Blunted Inhibition by cAMP Due to Deficient cAMP Response Element-Binding Protein Phosphorylation”, Journal of Pharmacology and Experimental Therapeutics (2005), 315(2), 678-687; ^2Watts, K. L., et. al., “RhoA signaling modulates cyclin D1 expression in human lung fibroblasts; implications for idiopathic pulmonary fibrosis”, Respiratory Research (2006), 7(1), 88] were obtained from American Type Culture Collection (ATCC) and expanded in F12 medium supplemented with 15% Fetal Bovine Serum and Penicillin/Streptomycin.
Each compound was dissolved in DMSO as a 10 mM stock and used to prepare compound source plates. Serial dilution (1:2, 11-point dose-response curves from 10 μM to […]) and compound transfer was performed using the ECHO 550 (Labcyte, Sunnyvale, Calif.) into 384-well clear bottom assay plates (Greiner Bio-One) with appropriate DMSO backfill for a final DMSO concentration of 0.1%. LL29 cells are plated at 1,500 cells/well in 80 μL/well F12 medium supplemented with 1% Fetal Bovine Serum. One hour after addition of the cells, TGF-01 (Peprotech; 20 ng/mL) was added to the plates to induce fibrosis (ref. 1 and 2 above). Wells treated with TGF-β1 and containing DMSO were used as controls. Cells were incubated at 37° C. and 5% CO2 for 4 days. Following incubation for 4 days, SYTOX green nucleic acid stain (Life Technologies [Thermo Fisher Scientific]) was added to the wells at a final concentration of 1 μM and incubated at room temperature for 30 min. Cells were then fixed using 4% formaldehyde (Electron Microscopy Sciences), washed 3 times with PBS followed by blocking and permeabilization using 3% Bovine Serum Albumin (BSA; Sigma) and 0.3% Triton X-100 (Sigma) in PBS. Cells were then stained with antibody specific to α-smooth muscle actin (aSMA; Abcam) (ref. 1 and 2 above) in 3% Bovine Serum Albumin (BSA; Sigma) and 0.3% Triton X-100 (Sigma) in PBS, and incubated overnight at 4° C. Cells were then washed 3 times with PBS, followed by incubation with Alexa Flor-647 conjugated secondary antibody (Life Technologies [Thermo Fisher Scientific]) and DAPI at room temperature for 1 hour. Cells were then washed 3 times with PBS and plates were sealed for imaging. αSMA staining was imaged by excitation at 630 nm and emission at 665 nm and quantified using the Compartmental Analysis program on the CellInsight CX5 (Thermo Scientific). Dead or apoptotic cells were excluded from analysis based on positive SYTOX green staining. % of total cells positive for aSMA were counted in each well and normalized to the average of 11 wells treated with TGF-01 on the same plate using Dotmatics' Studies Software. The normalized averages (fold change over untreated) of 3 replicate wells for each compound concentration were used to create dose-responses curves and EC50 values were calculated using non-linear regression curve fit in the Dotmatics' Studies Software. For EC50 of >10 μM, the percent inhibition at 10 μM is provided.

IL-6 = IL-6 inhibition in LPS-stimulated THP-1 monocytes (HTRF); type: cell-based, human; conditions: Homo sapiens, THP-1 cells; for pEC50: 500 ng/mL LPS, 22 h, HTRF IL-6 readout, 10-point dose-response from 10 μM; for inhibition at 10 µM: LPS stimulated, given only where EC50 >10 μM, top concentration 10 μM, read-out: percentage in parentheses beside EC50 >10 (IL-6 inhibition)
Method: Human monocyte cell line (THP-1 cells; Catalog # TIB-202, ATCC, Manassas, Va.) were cultured in Roswell Park Memorial Institute (RPMI) 1640 Medium (Catalog #21870-100, Buffalo, N.Y.) with 1% L-glutamine, 1% HEPES, 1% Sodium Pyruvate, 2% Sodium Bicarbonate supplemented with 100 units/mL penicillin, 50 μg/mL streptomycin, 2-mercaptoethanol (0.05 mM) [basal medium] and 10% fetal bovine serum (Catalog #16140089, Life Technologies, Carlsbad, Calif.) at 37° C. and 5% CO2.
THP-1 cells were cultured in basal media with 1% FBS for 24 hours before the start of the assay. Each compound was dissolved in DMSO as a 10 mM stock and used to prepare compound source plates. Serial dilution (1:3, 10-point dose-response curves starting from 10 μM) and compound transfer was performed using the ECHO 550 (Labcyte, Sunnyvale, Calif.) into 384-well white low volume assay plates (Greiner Bio-One) with appropriate DMSO backfill for a final DMSO concentration of 0.1%. THP-1 cells were plated at 5000 cells/well in the 384-well plates and incubated at 37° C. for 2 h. 500 ng/mL of LPS was added after 2 hours and cells were incubated for another 22 hours at 37° C. Plates were spun in a centrifuge for 1 minute at […] and a mixture of anti-IL6 XL665, and anti-IL6 Cryptate diluted in reconstitution buffer (Cisbio Inc.) was added to each well. Following incubation for 3 hrs at room temperature, Homogeneous Time-Resolved Fluorescence (HTRF) was measured using the Envision (Perkin Elmer) at 665 nm and […]. The ratio of fluorescence at 665 nm to 620 nm was used as a readout for IL6 quantification. All samples were processed in duplicate. Readings were normalized to DMSO treated cells and normalized activities were utilized for EC50 calculations using the dose-response log (inhibitor) vs. response variable slope (four parameters) nonlinear regression feature available in GraphPad Prism 5.0 (or Dotmatics). For EC50 of >10 μM, the percent inhibition at 10 μM is provided.

Compound	pEC50 (SW480 colon cancer cells)	pEC50 (IL-6)	pEC50 [1]	inhibition at 10 µM (SW480 colon cancer cells) [%]	inhibition at 10 µM (IL-6) [%]	inhibition at 10 µM [1] [%]
O=C(Nc1cncc(-c2cnc3[nH]nc(-c4cc5c(-c6ccccc6F)cccc5[nH]4)c3c2)c1)C1CCCC1 [Compound 66, N-(5-(3-(4-(2-Fluorophenyl)-1H-indol-2-yl)-1H-pyrazolo[3,4-b]pyridin-5-yl)pyridin-3-yl)cyclopentanecarboxamide]	< 5.00	5.01	5.19	53.2		
Fc1ccccc1-c1cccc2[nH]c(-c3n[nH]c4ncc(C5CCNCC5)cc34)cc12 [Compound 539, 3-(4-(2-Fluorophenyl)-1H-indol-2-yl)-5-(piperidin-4-yl)-1H-pyrazolo[3,4-b]pyridine]	< 5.00	5.44	5.29	51.5		
O=C(Nc1cncc(-c2cnc3[nH]nc(-c4cc5c(-c6ccncc6)cccc5[nH]4)c3c2)c1)C1CCCCC1 [Compound 115, N-(5-(3-(4-(Pyridin-4-yl)-1H-indol-2-yl)-1H-pyrazolo[3,4-b]pyridin-5-yl)pyridin-3-yl)cyclohexanecarboxamide]	< 5.00	6.23	5.30	24.3		
c1ccc(-c2cnc3[nH]nc(-c4cc5c(-c6ccncc6)cccc5[nH]4)c3c2)nc1 [Compound 120, 5-(Pyridin-2-yl)-3-(4-(pyridin-4-yl)-1H-indol-2-yl)-1H-pyrazolo[3,4-b]pyridine]	< 5.00	6.99	6.19	22.8		
CC(C)(C)C(=O)Nc1cncc(-c2cnc3[nH]nc(-c4cc5c(-c6ccoc6)cccc5[nH]4)c3c2)c1 [Compound 290, N-(5-(3-(4-(Furan-3-yl)-1H-indol-2-yl)-1H-pyrazolo[3,4-b]pyridin-5-yl)pyridin-3-yl)pivalamide]	< 5.00	< 5.00	< 5.00	35.1	31.2	43.3
c1ccc(CNCc2cncc(-c3cnc4[nH]nc(-c5cc6ncccc6[nH]5)c4c3)c2)cc1 [Compound 502, 1-(5-(3-(1H-Pyrrolo[3,2-b]pyridin-2-yl)-1H-pyrazolo[3,4-b]pyridin-5-yl)pyridin-3-yl)-N-benzylmethanamine]	< 5.00	5.22	5.51	9.8		
Cc1ccncc1-c1cnc2[nH]nc(-c3cc4c(-c5cc(F)cc(CNS(C)(=O)=O)c5)cccc4[nH]3)c2c1 [Compound 455, N-(3-Fluoro-5-(2-(5-(4-methylpyridin-3-yl)-1H-pyrazolo[3,4-b]pyridin-3-yl)-1H-indol-4-yl)benzyl)methanesulfonamide]	< 5.00	< 5.00	< 5.00	8.7	54.8	43.9
CN1CCN(c2cccc3[nH]c(-c4n[nH]c5ncc(-c6cncnc6)cc45)cc23)CC1 [Compound 227, 3-(4-(4-Methylpiperazin-1-yl)-1H-indol-2-yl)-5-(pyrimidin-5-yl)-1H-pyrazolo[3,4-b]pyridine]	5.06	5.41	< 5.00			47.8

Stronger by pEC50 (SW480 colon cancer cells), values ahead:

pEC50 (SW480 colon cancer cells)	pEC50 (IL-6)	Compound	pEC50 [1]	inhibition at 10 µM (SW480 colon cancer cells) [%]	inhibition at 10 µM (IL-6) [%]	inhibition at 10 µM [1] [%]
5.52	5.15	FC1(F)CCN(Cc2cncc(-c3cnc4[nH]nc(-c5cc6c(-c7ccoc7)cccc6[nH]5)c4c3)c2)C1 [Compound 308, 5-(5-((3,3-Difluoropyrrolidin-1-yl)methyl)pyridin-3-yl)-3-(4-(furan-3-yl)-1H-indol-2-yl)-1H-pyrazolo[3,4-b]pyridine]	5.49			
5.44	< 5.00	c1ccc(CNCc2cncc(-c3cnc4[nH]nc(-c5cc6c(-c7ccncc7)cccc6[nH]5)c4c3)c2)cc1 [Compound 116, N-Benzyl-1-(5-(3-(4-(pyridin-4-yl)-1H-indol-2-yl)-1H-pyrazolo[3,4-b]pyridin-5-yl)pyridin-3-yl)methanamine]	5.60		41.7	
5.33	5.72	CCCCC(=O)Nc1cncc(-c2cnc3[nH]nc(-c4cc5c(-c6ccccn6)cccc5[nH]4)c3c2)c1 [Compound 136, N-(5-(3-(4-(Pyridin-2-yl)-1H-indol-2-yl)-1H-pyrazolo[3,4-b]pyridin-5-yl)pyridin-3-yl)pentanamide]	5.57			
6.42	6.18	CC(C)CC(=O)Nc1cncc(-c2cnc3[nH]nc(-c4cc5c(-c6cc(F)cc(NCCN(C)C)c6)cccc5[nH]4)c3c2)c1 [Compound 424, N-(5-(3-(4-(3-((2-(Dimethylamino)ethyl)amino)-5-fluorophenyl)-1H-indol-2-yl)-1H-pyrazolo[3,4-b]pyridin-5-yl)pyridin-3-yl)-3-methylbutanamide]	6.46			
6.23	6.56	Nc1cncc(-c2cnc3[nH]nc(-c4cc5c(-c6ccccc6F)cccc5[nH]4)c3c2)c1 [Compound 49, 5-(3-(4-(2-Fluorophenyl)-1H-indol-2-yl)-1H-pyrazolo[3,4-b]pyridin-5-yl) pyridin-3-amine]	6.76			
